Results published in patent US4977152A, “Novel tricyclic derivatives which are agonists of cholinergic receptors, and drugs in which they are present” (Societe Anonyme: Sanofi, priority 1986, dated 1990).
Substitutions are numbered along the chain they refer to. Counter-ions that a name gives are not always drawn. Like-named read-outs stand apart in the source and are kept apart here.

What was measured:
[1] = target: T1, M1 central muscarinic cholinergic receptors (Mus musculus, UniProt P12657); test: Antagonism of rotational behavior induced by intrastriatal injection of pirenzepine in mice; type: in vivo, mice (female, Swiss, CD 1); details: ip, read-out: Pirenzepine antagonism ED50
T1 construct: The intrastriatal injection of PZ into mice induces rotational behavior; from tissue; host or cells: right striatum of living female mice (Swiss, CD 1)
T1 sequence (P12657 1-460): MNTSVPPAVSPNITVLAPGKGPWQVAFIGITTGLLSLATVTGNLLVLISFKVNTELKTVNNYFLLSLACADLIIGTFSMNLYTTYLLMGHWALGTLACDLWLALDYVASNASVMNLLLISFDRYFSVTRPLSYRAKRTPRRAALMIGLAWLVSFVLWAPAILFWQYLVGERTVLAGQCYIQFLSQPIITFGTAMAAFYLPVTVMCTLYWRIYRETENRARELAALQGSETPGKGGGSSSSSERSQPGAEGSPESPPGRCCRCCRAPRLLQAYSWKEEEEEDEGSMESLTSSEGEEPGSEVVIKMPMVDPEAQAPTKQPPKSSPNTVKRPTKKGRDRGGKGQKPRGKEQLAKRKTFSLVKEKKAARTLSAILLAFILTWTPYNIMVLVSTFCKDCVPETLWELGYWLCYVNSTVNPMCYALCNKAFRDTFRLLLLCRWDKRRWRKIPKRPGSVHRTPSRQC
Experimental: Pirenzepine (PZ) is a specific antagonist of M1 central muscarinic cholinergic receptors. The intrastriatal injection of PZ into mice induces rotational behavior. The antagonism of this behavior by the products according to the invention was studied.
The products according to the invention are injected intraperitoneally (i.p.) after solubilization in distilled water or suspension in a 5% solution of gum arabic. The control animals receive an injection of the pure solvent under the same conditions.
The animals used are female mice (Swiss, CD 1, Charles River, France) with a body weight of between 25 and 30 grams.
Pirenzepine is dissolved in a phosphate buffer; the pH of the solution is 6.
The products to be studied or their solvents are injected intraperitoneally, in a volume of 0.4 ml per 20 g of body weight, 15 minutes before a direct injection of pirenzepine at a dose of […] into the right striatum of the mouse, according to the method described by p.
The number of contralateral rotations (rotations in the opposite direction to the side injected) was counted for three 2-minute periods after the injection of pirenzepine: minutes 2 to 4, 8 to 10 and 13 to 15. Each treatment includes 3 to 4 doses and 10 animals per dose. For each treatment, the total number of rotations and the percentage antagonism compared with the control group are calculated.

[2] = target: T2, M2-type muscarinic cholinergic receptor (Cavia porcellus, UniProt H0VRN8); test: Test for affinity for the M2-type muscarinic cholinergic receptor: displacement of [3H]N-methylscopolamine on smooth muscle of guinea-pig ileum; type: binding; details: guinea-pig ileum smooth muscle homogenate, 0.3 nM [3H]NMS, 20 min at 30° C., pH 7.5
T2 construct: on a homogenate of smooth muscle of guinea-pig ileum; from tissue; host or cells: guinea-pig ileum smooth muscle homogenate
T2 sequence (H0VRN8 1-466): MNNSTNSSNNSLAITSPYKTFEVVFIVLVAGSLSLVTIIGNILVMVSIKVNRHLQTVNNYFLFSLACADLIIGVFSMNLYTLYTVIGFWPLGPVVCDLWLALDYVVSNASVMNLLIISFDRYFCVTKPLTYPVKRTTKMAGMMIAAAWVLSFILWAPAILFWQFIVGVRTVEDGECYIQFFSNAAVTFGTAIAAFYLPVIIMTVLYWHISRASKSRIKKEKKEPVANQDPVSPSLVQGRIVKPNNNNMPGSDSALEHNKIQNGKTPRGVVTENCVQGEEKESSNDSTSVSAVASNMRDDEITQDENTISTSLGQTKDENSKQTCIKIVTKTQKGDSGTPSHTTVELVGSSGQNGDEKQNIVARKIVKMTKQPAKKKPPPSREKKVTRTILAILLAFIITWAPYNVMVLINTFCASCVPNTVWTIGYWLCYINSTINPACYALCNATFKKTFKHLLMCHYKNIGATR
Text: (§1) The M1 -type receptors are concentrated in certain areas of the brain, such as the hippocampus, the cerebral cortex and the striatum, and also in the sympathetic ganglia. These binding sites can be selectively labeled with [^3 H]pirenzepine ([^3 H]PZ). The M2 -type receptors predominate in the heart and ileum and can be labeled with [^3 H]N-methylscopolamine ([^3 H]NMS). To determine the selectivity of our molecules towards the M1 and M2 sites, we studied their interaction in vitro with [^3 H]PZ and [^3 H]NMS bound with a high affinity to membranes of rat hippocampus and membranes of smooth muscle of guinea-pig ileum, respectively.
The interaction with M2 -type muscarinic receptors was studied by in vitro measurement, on a homogenate of smooth muscle of guinea-pig ileum, of the displacement of tritiated N-methylscopolamine ([^3 H]NMS) from its specific binding sites. Aliquots (50 μl) of a 0.625% (w/v) homogenate of smooth muscle of guinea-pig ileum in MEPES buffer (20 mM) containing NaCl (100 mM) and MgCl2 (10 mM) (final pH: 7.5) are incubated for 20 min at 30° C. in the presence of [^3 H]NMS ([…]; final concentration: 0.3 nM) and increasing concentrations of products to be tested. The final volume is 1 ml. The reaction is stopped by centrifugation for 5 min at 15,000 × g. The non-specific binding is determined in the presence of 10 μmol/l of atropine sulfate (Ref.: Hammer R., Berrie C. P., Birdsall N. I. M., Burgen A. S. V. and Hulme E. C., Nature, 283, 90-92, 1980; Hulme E. C., Birdsall N.1.M., Burgen A. S. V. and Mettha P., Mol. pharmacol., 14, 737-750, 1978).
(§2) Table 4 indicates the affinities of the products of the invention for M1 and M2 receptors. The results are expressed as 50% inhibitory concentrations (IC50), i.e. the concentration (in μM) which causes a 50% displacement placement of the tritiated ligand bound to the membrane receptors. The IC50 for displacement of ^3 H-pirenzepine represents the affinity for the M1 receptor; the IC50 for displacement of 3H-NMS represents the affinity for the M2 receptor.

[3] = target: T3, M1-type muscarinic cholinergic receptor (Rattus norvegicus, UniProt P08482); test: Test for affinity for the M1-type muscarinic cholinergic receptor: displacement of [3H]pirenzepine on rat hippocampus homogenate; type: binding; details: for IC50: rat hippocampus homogenate, 1 nM [3H]PZ, 2 h at 4° C., pH 7.40; for r = (M2 /M1): ratio of IC50 M2 (3H-NMS, guinea-pig ileum) to IC50 M1 (3H-pirenzepine, rat hippocampus)
T3 sequence (P08482 1-460): T1 sequence (P12657 1-460) with P309S
Text: as §1
The interaction of the molecules with M1 -type muscarinic receptors was studied by in vitro measurement, on a homogenate of rat hippocampus, of the displacement of tritiated pirenzepine ([^3 H]PZ) from its specific binding sites. Aliquots (10 μl) of a 5% (w/v) homogenate of rat hippocampus in an Na2 HPO4 buffer (50 mM, pH 7.40) are incubated for 2 h at 4° C. in the presence of [^3 H]pZ ([…]; final concentration: 1 nM) and increasing concentrations of products to be studied. The final volume is 2 ml. The reaction is stopped by centrifugation for 10 min at 50,000 × g. After decantation and washing of the residues, the bound radioactivity is counted by liquid scintillation. The non-specific binding is determined in the presence of 10 μmol/l of atropine sulfate. The 50% inhibitory concentration (IC50) is determined graphically (Ref.: Watson J. D., Roeskoe W. R. and Yamamura H.1., Life Sci., 31, 2019-2029, 1982).
as §2

[4] = mice, i.p. 15 minutes before intrastriatal pirenzepine, 50% reduction in number of rotations

SMILES	ED50 [1, 4] [mg/kg]	ED50 [1] [mg/kg]	IC50 [2] [nM]	IC50 [3] [nM]	r = (M2 /M1) [3]
Cc1cc2c(cc1C)-c1nnc(NCCN3CCCC3)cc1CCC2 [SR 44650 A]	3	–	–	–	–
CCN(CC)CCNc1cc2c(nn1)-c1cc(C)c(C)cc1CCC2.Cl.Cl [SR 44663 A, 3-(2-Diethylaminoethylamino)-9,10-dimethyl-6,7-dihydro-5H-benzocyclohepta[5,6-c]pyridazine dihydrochloride]	–	1	5000	160	37
Cc1cc2c(cc1C)-c1nnc(NCCN(C(C)C)C(C)C)cc1CCC2 [SR 44664 A]	3	–	2000	180	11
CN(C)CCNc1cc2c(nn1)-c1cc([N+](=O)[O-])ccc1CCC2 [SR 44681 A]	1	–	9000	260	35
c1ccc2c(c1)CCCc1cc(NCCN3CCCCC3)nnc1-2 [SR 44694 A]	–	–	3600	150	24
CCN(CC)CCNc1cc2c(nn1)-c1cc(Cl)c(Cl)cc1CCC2.Cl.Cl [SR 44695 A, 9,10-Dichloro-3-(2-diethylaminoethylamino)-6,7-dihydro-5H-benzocyclohepta[5,6-c]pyridazine dihydrochloride]	–	–	4500	450	10
CN(C)CCNc1cc2c(nn1)-c1cc(Cl)c(Cl)cc1CCC2 [SR 44696 A]	–	–	6500	700	10
CC(C)N(CCNc1cc2c(nn1)-c1cc([N+](=O)[O-])ccc1CCC2)C(C)C [SR 44697 A]	–	–	3000	300	10
CCN(CC)CCNc1cc2c(nn1)-c1cc(C)c(C)cc1CCCC2.Cl.Cl [SR 44703 A, 3-(2-Diethylaminoethylamino)-10,11-dimethyl-5,6,7,8-tetrahydrobenzocycloocta[5,6-c]pyridazine dihydrochloride]	–	–	4000	100	40
Clc1cc2c(cc1Cl)-c1nnc(NCCN3CCCCC3)cc1CCC2 [SR 44705 A]	–	–	3000	180	16
CCCCN(CCCC)CCNc1cc2c(nn1)-c1cc(C)c(C)cc1CCC2 [SR 44706 A]	–	–	30000	3600	8
Cl.Cl.c1ccc2c(c1)CCCc1cc(NCCN3CCOCC3)nnc1-2 [SR 95639 A, 3-(2-Morpholinoethylamino)-6,7-dihydro-5H-benzocyclohepta[5,6-c]pyridazine dihydrochloride]	–	5	55000	400	137
O=C1CN(CCNc2cc3c(nn2)-c2ccccc2CCC3)CCO1 [SR 95696 A, 3-Z-(2-Oxomorpholino)ethylamino]-6,7-dihydro-5H-benzocyclohepta[5,6-c]pyridazine hydrochloride]	3	–	–	–	–
CCN(CC)CCNc1cc2c(nn1)-c1cc(N)ccc1CCC2 [SR 95776 A, 10-Amino-3-(Z-diethylaminoethylamino)-6,7-dihydro-5H-benzocyclohepta[5,6-c]pyridazine dihydrochloride]	–	–	2000	200	10
c1ccc2c(c1)CCCc1cc(NCCCN3CCOCC3)nnc1-2 [SR 95817 A]	2	–	–	–	–
OCCNCCNc1cc2c(nn1)-c1ccccc1CCC2 [SR 95819 A, 3-[2-(2-hydroxyethylamino)ethylamino]-6,7-dihydro-5H-benzocyclohepta[5,6-c]pyridazine]	10	–	–	–	–
Cc1cc2ccccc2c2nnc(NCCN3CCOCC3)cc12 [SR 96057 A, 5-3-(2-morpholinoethylamino)benzo[h]cinnoline dihydrochloride]	–	–	43000	3000	14
Cl.Cl.O=[N+]([O-])c1cccc2c1CCCc1cc(NCCN3CCOCC3)nnc1-2 [SR 96100 A, 3-(2-Morpholinoethylamino)-8-nitro-6,7-dihydro-5H-benzocyclohepta[5,6-c]pyridazine dihydrochloride]	–	–	44000	400	110
Cl.Cl.Fc1ccc2c(c1)CCCc1cc(NCCN3CCOCC3)nnc1-2 [SR 96108 A, 9-Fluoro-3 (2-morpholinoethylamino)-6,7-dihydro-5H-benzocyclohepta[5,6-c]pyridazine dihydrochloride]	–	–	40000	1000	40
